{
  "source": "ChEMBL document CHEMBL5241120",
  "about": "“Insights into the medicinal chemistry of heterocycles integrated with a pyrazolo[1,5-a]pyrimidine scaffold” (RSC Med Chem, 2022)",
  "key": {"[1]": {"system": "Staphylococcus aureus", "experiment": "Antibacterial activity against Staphylococcus aureus assessed as zone of inhibition", "assay_type": "functional"}, "[2]": {"system": "Salmonella typhimurium", "experiment": "Antibacterial activity against Salmonella typhimurium assessed as zone of inhibition", "assay_type": "functional, Salmonella enterica subsp. enterica serovar Typhimurium"}, "[3]": {"system": "Aspergillus niger", "experiment": "Antifungal activity against Aspergillus niger assessed as zone of inhibition", "assay_type": "functional"}, "[4]": {"system": "HCT-116", "experiment": "Cytotoxicity against human HCT-116 cells by MTT assay", "assay_type": "functional, cell-based"}, "[5]": {"system": "HepG2", "experiment": "Cytotoxicity against human HepG2 cells by MTT assay", "assay_type": "functional, cell-based"}, "[6]": {"system": "MCF7", "experiment": "Cytotoxicity against human MCF7 cells by MTT assay", "assay_type": "functional, cell-based"}, "[7]": {"system": "Bacillus subtilis", "experiment": "Antibacterial activity against Bacillus subtilis assessed as zone of inhibition at 5 mg/ml", "assay_type": "functional", "conditions": "read-out: IZ"}, "[8]": {"system": "HCT-116", "experiment": "Cytotoxicity against human HCT-116 cells", "assay_type": "functional"}, "[9]": {"system": "Candida albicans", "experiment": "Antifungal activity against Candida albicans", "assay_type": "functional"}, "[10]": {"system": "Streptococcus mutans", "experiment": "Antibacterial activity against Streptococcus mutans assessed as zone of inhibition at 5 mg/ml", "assay_type": "functional", "conditions": "read-out: IZ"}, "[11]": {"system": "Proteus vulgaris", "experiment": "Antibacterial activity against Proteus vulgaris assessed as zone of inhibition at 5 mg/ml", "assay_type": "functional", "conditions": "read-out: IZ"}, "[12]": {"system": "Staphylococcus aureus", "experiment": "Antibacterial activity against Staphylococcus aureus assessed as zone of inhibition at 5 mg/ml", "assay_type": "functional", "conditions": "read-out: IZ"}, "[13]": {"system": "Escherichia coli", "experiment": "Antibacterial activity against Escherichia coli assessed as zone of inhibition at 5 mg/ml", "assay_type": "functional", "conditions": "read-out: IZ"}, "[14]": {"system": "Enterococcus faecalis", "experiment": "Antibacterial activity against Enterococcus faecalis assessed as zone of inhibition at 5 mg/ml", "assay_type": "functional", "conditions": "read-out: IZ"}, "[15]": {"target": "T1, Androgen receptor (Homo sapiens, UniProt P10275)", "T1 sequence (P10275 whole entry)": "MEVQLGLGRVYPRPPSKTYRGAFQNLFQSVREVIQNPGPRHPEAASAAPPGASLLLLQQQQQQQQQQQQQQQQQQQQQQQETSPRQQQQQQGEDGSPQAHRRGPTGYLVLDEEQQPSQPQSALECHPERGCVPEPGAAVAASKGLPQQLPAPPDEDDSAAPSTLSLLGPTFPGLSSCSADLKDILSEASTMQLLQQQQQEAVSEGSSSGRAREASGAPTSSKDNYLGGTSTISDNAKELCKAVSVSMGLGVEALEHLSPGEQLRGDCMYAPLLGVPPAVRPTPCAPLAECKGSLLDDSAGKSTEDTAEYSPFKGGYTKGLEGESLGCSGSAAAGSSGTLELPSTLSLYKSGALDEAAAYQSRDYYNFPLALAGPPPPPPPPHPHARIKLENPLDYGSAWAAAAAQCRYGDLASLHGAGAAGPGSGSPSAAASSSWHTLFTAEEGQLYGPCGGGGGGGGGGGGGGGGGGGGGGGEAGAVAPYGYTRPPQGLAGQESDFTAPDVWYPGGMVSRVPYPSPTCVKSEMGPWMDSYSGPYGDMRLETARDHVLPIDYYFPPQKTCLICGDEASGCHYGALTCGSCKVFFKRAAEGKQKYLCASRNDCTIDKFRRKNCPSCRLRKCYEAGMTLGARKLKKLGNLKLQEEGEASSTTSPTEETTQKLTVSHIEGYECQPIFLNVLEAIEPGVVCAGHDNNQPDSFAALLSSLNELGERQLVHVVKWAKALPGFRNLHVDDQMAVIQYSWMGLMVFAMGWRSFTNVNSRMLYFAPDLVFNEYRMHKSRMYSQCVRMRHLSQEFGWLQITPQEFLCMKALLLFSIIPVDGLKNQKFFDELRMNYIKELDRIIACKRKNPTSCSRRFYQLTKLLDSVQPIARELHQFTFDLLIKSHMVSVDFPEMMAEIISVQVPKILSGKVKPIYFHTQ", "experiment": "Antagonist activity at androgen receptor (unknown origin)"}, "[16]": {"system": "CHO-K1", "experiment": "Cytotoxicity against CHO-K1 cells by MTT assay", "assay_type": "toxicity, cell-based, Cricetulus griseus", "design": "concentration or dose not given beside the values", "conditions": "chinese hamster"}, "[17]": {"system": "Mus musculus", "experiment": "Antiinflammatory activity in mouse assessed as inhibition of paw edema after 24 hrs", "assay_type": "functional", "design": "scale not given: the % may be the effect or the level left"}, "[18]": {"system": "Mus musculus", "experiment": "Antiinflammatory activity in mouse assessed as inhibition of paw edema after 4 hrs", "assay_type": "functional", "design": "scale not given: the % may be the effect or the level left"}, "[19]": {"system": "SiHa", "experiment": "Cytotoxicity against human SiHa cells by MTT assay", "assay_type": "functional, cell-based"}, "[20]": {"system": "A549", "experiment": "Cytotoxicity against human A549 cells by MTT assay", "assay_type": "functional, cell-based"}, "[21]": {"system": "Escherichia coli", "experiment": "Antibacterial activity against Escherichia coli assessed as zone of inhibition", "assay_type": "functional"}, "[22]": {"target": "T2, liver carboxylesterase (CES) (Sus scrofa, UniProt Q29550)", "T2 sequence (Q29550 whole entry)": "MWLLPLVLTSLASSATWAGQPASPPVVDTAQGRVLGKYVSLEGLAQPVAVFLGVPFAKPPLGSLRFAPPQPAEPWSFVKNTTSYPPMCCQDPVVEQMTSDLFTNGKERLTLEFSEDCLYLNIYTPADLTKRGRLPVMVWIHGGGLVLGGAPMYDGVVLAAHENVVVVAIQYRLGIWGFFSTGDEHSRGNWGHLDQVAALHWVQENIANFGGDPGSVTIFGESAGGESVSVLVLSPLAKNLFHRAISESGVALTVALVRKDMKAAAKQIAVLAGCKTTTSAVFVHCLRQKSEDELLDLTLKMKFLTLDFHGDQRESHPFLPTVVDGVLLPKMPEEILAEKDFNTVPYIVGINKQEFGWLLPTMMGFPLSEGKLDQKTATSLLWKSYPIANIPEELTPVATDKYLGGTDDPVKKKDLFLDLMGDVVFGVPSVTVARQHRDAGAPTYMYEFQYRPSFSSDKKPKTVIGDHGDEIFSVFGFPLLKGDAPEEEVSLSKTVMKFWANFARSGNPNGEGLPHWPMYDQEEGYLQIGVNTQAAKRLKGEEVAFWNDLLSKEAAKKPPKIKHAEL", "experiment": "Inhibition of pig liver CES at 20 uM relative to control", "assay_type": "tissue-based"}, "[23]": {"system": "Mus musculus", "experiment": "Anxiolytic activity in mouse assessed as transfer number at 1 mg/kg, po", "assay_type": "functional"}, "[24]": {"system": "Mus musculus", "experiment": "Anxiolytic activity in mouse assessed as time spent in light at 1 mg/kg, po", "assay_type": "functional"}},
  "data": [
    {"smiles": "Nc1nn2c(-c3ccc(S(=O)(=O)c4ccccc4)cc3)ccnc2c1/N=N/c1cccc(Cl)c1", "values": [
      {"measurement": "inhibition zone (IZ)", "setting": "[1]", "result": 23.4, "unit": "mm"},
      {"measurement": "inhibition zone (IZ)", "setting": "[2]", "result": 26.3, "unit": "mm"},
      {"measurement": "inhibition zone (IZ)", "setting": "[3]", "result": 25.1, "unit": "mm"}
    ]},
    {"smiles": "Nc1nc2c(/N=N/c3ccc(C(F)(F)F)cc3)c(N)nn2c(N)c1/N=N/c1ccc(C(F)(F)F)cc1", "values": [
      {"measurement": "IC50", "setting": "[4]", "result": 0.4, "unit": "µg/mL"},
      {"measurement": "IC50", "setting": "[5]", "result": 0.6, "unit": "µg/mL"},
      {"measurement": "IC50", "setting": "[6]", "result": 0.3, "unit": "µg/mL"},
      {"measurement": "zone of inhibition at 5000 µg/mL", "setting": "[7]", "result": 8, "unit": "mm"}
    ]},
    {"smiles": "COc1ccc(-c2ccnc3cc(-c4ccc(Cl)cc4)nn23)cc1", "values": [
      {"measurement": "Activity", "setting": "[8]", "result": 37, "unit": "%"}
    ]},
    {"smiles": "COc1ccc(Nc2nn3c(N)c(C#N)c(-c4ccc(F)cc4)nc3c2C(N)=O)cc1", "values": [
      {"measurement": "MIC", "setting": "[9]", "result": 15.6, "unit": "µg/mL"}
    ]},
    {"smiles": "NC(=O)c1c(Nc2ccccc2)nn2c(-c3ccccc3)cc(-c3ccccc3)nc12", "values": [
      {"measurement": "MIC", "setting": "[9]", "result": 15.6, "unit": "µg/mL"}
    ]},
    {"smiles": "Cc1cc(C)nc(NS(=O)(=O)c2ccc(/N=N/c3c(N)nc4c(/N=N/c5ccc(F)cc5)c(N)nn4c3N)cc2)n1", "values": [
      {"measurement": "zone of inhibition at 5000 µg/mL", "setting": "[10]", "result": 9, "unit": "mm"},
      {"measurement": "zone of inhibition at 5000 µg/mL", "setting": "[11]", "result": 9, "unit": "mm"},
      {"measurement": "zone of inhibition at 5000 µg/mL", "setting": "[12]", "result": 9, "unit": "mm"},
      {"measurement": "zone of inhibition at 5000 µg/mL", "setting": "[13]", "result": 9, "unit": "mm"},
      {"measurement": "zone of inhibition at 5000 µg/mL", "setting": "[14]", "result": 9, "unit": "mm"},
      {"measurement": "zone of inhibition at 5000 µg/mL", "setting": "[7]", "result": 9, "unit": "mm"}
    ]},
    {"smiles": "CC1(C2CC(C(F)(F)F)n3nc(C(=O)O)cc3N2)CC1", "note": "(stereo unspecified)", "values": [
      {"measurement": "IC50", "setting": "[15]", "result": 214, "unit": "µM"}
    ]},
    {"smiles": "O=C(O)c1nn2c(c1Cl)NC(c1ccccc1)CC2C(F)(F)F", "note": "(stereo unspecified)", "values": [
      {"measurement": "IC50", "setting": "[15]", "result": 487, "unit": "µM"}
    ]},
    {"smiles": "CC(=O)c1cnc2c(C(=O)Nc3c(C)n(C)n(-c4ccccc4)c3=O)cnn2c1C", "values": [
      {"measurement": "Activity", "setting": "[16]", "result": 72.46, "unit": "%"},
      {"measurement": "Activity", "setting": "[17]", "result": 16.57, "unit": "%"}
    ]},
    {"smiles": "CC(C)Cc1ccc(C(C)C(=O)O)cc1", "note": "(stereo unspecified) [IBUPROFEN]", "values": [
      {"measurement": "Activity", "setting": "[18]", "result": 66.67, "unit": "%"}
    ]},
    {"smiles": "COc1ccc(C2CC(C(F)(F)F)n3nc(-c4ccc(C(=O)O)cc4)cc3N2)cc1OC", "note": "(stereo unspecified)", "values": [
      {"measurement": "IC50", "setting": "[15]", "result": 23.4, "unit": "µM"}
    ]},
    {"smiles": "COc1ccc(-c2cc(-c3nn4cc(-c5ccncc5)cnc4c3S(=O)(=O)c3cc([N+](=O)[O-])c(OC)c([N+](=O)[O-])c3)on2)cc1", "values": [
      {"measurement": "IC50", "setting": "[19]", "result": 0.08, "unit": "µM"},
      {"measurement": "IC50", "setting": "[20]", "result": 0.054, "unit": "µM"}
    ]},
    {"smiles": "Nc1nn2c(-c3ccc(S(=O)(=O)c4ccccc4)cc3)ccnc2c1/N=N/c1ccccc1[N+](=O)[O-]", "values": [
      {"measurement": "inhibition zone (IZ)", "setting": "[21]", "result": 25.5, "unit": "mm"},
      {"measurement": "inhibition zone (IZ)", "setting": "[2]", "result": 26.6, "unit": "mm"},
      {"measurement": "inhibition zone (IZ)", "setting": "[3]", "result": 26.3, "unit": "mm"}
    ]},
    {"smiles": "O=[N+]([O-])c1ccc(OP(=O)(O)Oc2ccc([N+](=O)[O-])cc2)cc1", "values": [
      {"measurement": "inhibition at 20 µM", "setting": "[22]", "result": 1.8, "unit": "%"}
    ]},
    {"smiles": "Cc1ccc(C2CC(C(F)(F)F)n3nc(C(N)=O)cc3N2)cc1", "note": "(stereo unspecified)", "values": [
      {"measurement": "IC50", "setting": "[15]", "result": 45.8, "unit": "µM"}
    ]},
    {"smiles": "CN1C(=O)CN=C(c2ccccc2)c2cc(Cl)ccc21", "note": "[DIAZEPAM]", "values": [
      {"measurement": "Activity", "setting": "[23]", "result": 171.6},
      {"measurement": "Activity", "setting": "[24]", "result": 171.6, "unit": "%"}
    ]}
  ]
}
